Results taken from patent publication US20200237742A1, “Serdexmethylphenidate Conjugates, Compositions And Methods Of Use Thereof” (priority 2018, published 2020).

Tests used:
[1] = Intravenous pharmacokinetic study (KP415.A03) in recreational stimulant users; conditions: human, in vivo, iv
Method: A study was conducted in humans to assess the intravenous abuse potential of serdexmethylphenidate relative to unconjugated d-methylphenidate and placebo in recreational stimulant abusers. This was a Phase 1, randomized, double-blind study in which serdexmethylphenidate and d-methylphenidate were administered intravenously in recreational stimulant users with a history of non-oral abuse. In Part A of the study, subjects (Cohort 1) participated in a dose-escalation phase to determine the optimal dose of intravenous d-methylphenidate based on tolerability and abuse-related pharmacodynamic assessments. […] The doses of serdexmethylphenidate and d-methylphenidate are equivalent with respect to molar amount of d-methylphenidate. FDA-recommended abuse potential measures and blood samples were collected at different times after dosing. Safety assessments were performed throughout the study.

[2] = test system: recreational stimulant abusers; test: Intravenous abuse potential study, VAS pharmacodynamic assessments; format: in vivo, human; conditions: for Median Overall Drug Liking / Median Take Drug Again: SDX Cl 30 mg, d-MPH HCl 15 mg
Source text: “Drug liking” score, used herein, is the score used to assess the degree that a human participant likes a drug effect at the time the question is being asked (that is, at the moment). It is scored using a 0 to 100 point bipolar visual analogue scale (VAS) anchored in the center with a neutral anchor of “neither like nor dislike” (score of 50), on the left with “strong disliking” (score of 0) and on the right with “strong liking” (score of 100).
“Euphoria” or “Feeling High” score, used herein, is the term to describe the score used to assess the degree that a human participant is high at the time the question is being asked (that is, at the moment). It is scored using a 0 to 100 point unipolar visual analogue scale (VAS) anchored on the left with “Not at All” (score of 0) and on the right with “Extremely” (score of 100).
“Take Drug Again” score, used herein, is the term to describe the score used to assess the degree that a human participant wants to take the drug again, if given the opportunity, based on his/her opinion now, i.e., at the time the question is being asked. It is scored using a 0 to 100 point unipolar visual analogue scale (VAS) anchored on the left with “Definitely Would Not” (score of 0) and on the right with “Definitely Would” (score of 100).
“Overall Drug Liking” score, used herein, is the term to describe the score used to assess the human subject's global perception of drug liking (i.e., the subjective effects over the whole course of the drug experience including any carryover effects). Subjects respond to the statement “Overall, my liking for this drug is.” The question is scored using a 0-100 point bipolar VAS anchored on the left with “Strong Disliking” (score of 0); “Neither Like nor Dislike” (score of 50) in the middle, and anchored on the right with “Strong Liking” (score of 100). This scale has the advantage of the human subject being relatively less affected or unaffected by acute study drug effects (if any) by the time of the assessment.
“Good Effects” score, used herein, is the term to describe the score used to assess the degree that a human participant is feeling good drug effects at the time the question is being asked (that is, at the moment). Subjects respond to the statement “At this moment, I can feel good drug effects.” It is scored using a 0 to 100 point unipolar visual analogue scale (VAS) anchored on the left with “Not at All” (score of 0) and on the right with “Extremely” (score of 100).
Safety assessments were performed throughout the study.

[3] = test system: healthy, nondependent, recreational stimulant users; test: Oral abuse potential study, VAS pharmacodynamic assessments; conditions: for Mean Difference Any Effects Emax, B vs E / Mean Difference Bad Effects Emax, B vs E / Mean Difference Feeling Alert/Drowsy Emax, B vs E / Mean Difference Feeling High Emax, B vs E / Mean Difference Good Effects Emax, B vs E / Mean Difference Overall Drug Liking Emax, B vs E / Mean Difference Take Drug Again Emax, B vs E / Mean Difference Drug Liking Emax, B vs E: SDX Cl 240 mg vs placebo
[4] = 12 hours, SDX Cl 30 mg vs placebo
[5] = 24 hours, SDX Cl 30 mg vs placebo
[6] = Focalin XR 80 mg vs SDX Cl 120 mg
[7] = Focalin XR 80 mg vs SDX Cl 240 mg
[8] = SDX Cl 120 mg vs placebo, listed as SDX chloride
[9] = phentermine HCl 60 mg vs SDX Cl 120 mg
[10] = phentermine HCl 60 mg vs SDX Cl 240 mg
[11] = phentermine HCl 60 mg vs SDX Cl 240 mg, listed as SDX chloride

COC(=O)[C@H](c1ccccc1)[C@H]1CCCCN1C(=O)OC[n+]1cccc(C(=O)N[C@@H](CO)C(=O)O)c1.[Cl-] [serdexmethylphenidate chloride]
AUCinf [1]: 31.0
AUCinf, GLSM [1]: 0.0289 µg·h/mL
AUCinf, GLSM Ratio A/B [1]: 12.2%
AUClast [1]: 25.7
AUClast, GLSM [1]: 0.0238 µg·h/mL
AUClast, GLSM Ratio A/B [1]: 10.2%
Cmax [1]: 0.0129 µg/mL
Cmax, GLSM [1]: 0.0121 µg/mL
Cmax, GLSM Ratio A/B [1]: 20.8%
T1/2 [1]: 8.23 h
Tmax [1]: 5.93 min
Mean Difference Take Drug Again, A vs C [2, 4]: 9.1
Overall Drug Liking, Mean difference A vs C [2, 4]: 2.8
Median Overall Drug Liking ([2]; 12 hours): 50.0
Median Take Drug Again ([2]; 12 hours): 0.0
Mean Difference Take Drug Again, A vs C [2, 5]: 1.4
Overall Drug Liking, Mean difference A vs C [2, 5]: 1.2
Median Overall Drug Liking ([2]; 24 hours): 50.0
Median Take Drug Again ([2]; 24 hours): 0.0
Mean Difference Take Drug Again, A vs C ([2]; Emax, SDX Cl 30 mg vs placebo): 6.0
Overall Drug Liking, Mean difference A vs C ([2]; Emax, SDX Cl 30 mg vs placebo): 1.4
Feeling High Emax, Mean difference A vs C ([2]; SDX Cl 30 mg vs placebo): 3.4
Good Effects Emax, Mean difference A vs C ([2]; SDX Cl 30 mg vs placebo): 2.2
Median Difference Drug Liking Emax, A vs C ([2]; SDX Cl 30 mg vs placebo, bipolar VAS): 0.5
Mean Difference Any Effects Emax, C vs A [3, 6]: statistically lower
Mean Difference Bad Effects Emax, C vs A [3, 6]: statistically lower
Mean Difference Feeling Alert/Drowsy Emax, C vs A [3, 6]: statistically lower
Mean Difference Feeling High Emax, C vs A [3, 6]: statistically lower
Mean Difference Good Effects Emax, C vs A [3, 6]: statistically lower
Mean Difference Overall Drug Liking Emax, C vs A [3, 6]: about 4.5
Mean Difference Take Drug Again Emax, C vs A [3, 6]: not statistically significant
Mean Difference Overall Drug Liking Emax, C vs A ([3]; Focalin XR 80 mg vs SDX Cl 120 mg, listed as SDX chloride): not statistically significant
Mean Difference Drug Liking Emax, C vs A ([3]; Focalin XR 80 mg vs SDX Cl 120 mg, margin 10): at least 18.2
Mean Difference Drug Liking Emax, C vs A ([3]; Focalin XR 80 mg vs SDX Cl 120 mg, margin 10, listed as SDX chloride): statistically significantly lower
Mean Difference Any Effects Emax, C vs B [3, 7]: statistically lower
Mean Difference Bad Effects Emax, C vs B [3, 7]: statistically lower
Mean Difference Feeling Alert/Drowsy Emax, C vs B [3, 7]: statistically lower
Mean Difference Feeling High Emax, C vs B [3, 7]: statistically lower
Mean Difference Good Effects Emax, C vs B [3, 7]: statistically lower
Mean Difference Overall Drug Liking Emax, C vs B [3, 7]: about 5.0
Mean Difference Take Drug Again Emax, C vs B [3, 7]: not statistically significant
Mean Difference Overall Drug Liking Emax, C vs B ([3]; Focalin XR 80 mg vs SDX Cl 240 mg, listed as SDX chloride): not statistically significant
Mean Difference Drug Liking Emax, C vs B ([3]; Focalin XR 80 mg vs SDX Cl 240 mg, margin 10): at least 16.7
Mean Difference Drug Liking Emax, C vs B ([3]; Focalin XR 80 mg vs SDX Cl 240 mg, margin 10, listed as SDX chloride): statistically significantly lower
Mean Difference Any Effects Emax, A vs E ([3]; SDX Cl 120 mg vs placebo): 11.0
Mean Difference Bad Effects Emax, A vs E ([3]; SDX Cl 120 mg vs placebo): 1.3
Mean Difference Feeling Alert/Drowsy Emax, A vs E ([3]; SDX Cl 120 mg vs placebo): 7.7
Mean Difference Feeling High Emax, A vs E ([3]; SDX Cl 120 mg vs placebo): 10.4
Mean Difference Good Effects Emax, A vs E ([3]; SDX Cl 120 mg vs placebo): 12.1
Mean Difference Overall Drug Liking Emax, A vs E ([3]; SDX Cl 120 mg vs placebo): 3.8
Mean Difference Take Drug Again Emax, A vs E ([3]; SDX Cl 120 mg vs placebo): 2.2
Mean Difference Bad Effects Emax, A vs E [3, 8]: not statistically different
Mean Difference Feeling Alert/Drowsy Emax, A vs E [3, 8]: statistically higher
Mean Difference Good Effects Emax, A vs E [3, 8]: statistically higher
Mean Difference Overall Drug Liking Emax, A vs E [3, 8]: not statistically different
Mean Difference Take Drug Again Emax, A vs E [3, 8]: not statistically different
Mean Difference Drug Liking Emax, A vs E ([3]; SDX Cl 120 mg vs placebo, margin 11): 6.8
Mean Difference Drug Liking Emax, A vs E ([3]; SDX Cl 120 mg vs placebo, margin 11, listed as SDX chloride): not statistically non-inferior
Drug Liking Emax, Median ([3]; SDX Cl 120 mg, bipolar VAS): 53.0
Feeling Alert/Drowsy Emax, Median ([3]; SDX Cl 120 mg, bipolar VAS): 54.0
Overall Drug Liking Emax, Median ([3]; SDX Cl 120 mg, bipolar VAS): 50.0
Take Drug Again Emax, Median ([3]; SDX Cl 120 mg, bipolar VAS): 50.0
Any Effects Emax, Median ([3]; SDX Cl 120 mg, unipolar VAS): 14.0
Bad Effects Emax, Median ([3]; SDX Cl 120 mg, unipolar VAS): 0.0
Feeling High Emax, Median ([3]; SDX Cl 120 mg, unipolar VAS): 7.0
Good Effects Emax, Mean ([3]; SDX Cl 120 mg, unipolar VAS): 27.0
Good Effects Emax, Median ([3]; SDX Cl 120 mg, unipolar VAS): 10.0
Mean Difference Any Effects Emax, B vs E [3]: 20.5
Mean Difference Bad Effects Emax, B vs E [3]: 8.6
Mean Difference Feeling Alert/Drowsy Emax, B vs E [3]: 11.2
Mean Difference Feeling High Emax, B vs E [3]: 18.8
Mean Difference Good Effects Emax, B vs E [3]: 17.4
Mean Difference Overall Drug Liking Emax, B vs E [3]: 3.3
Mean Difference Take Drug Again Emax, B vs E [3]: 1.7
Mean Difference Any Effects Emax, B vs E ([3]; listed as SDX chloride): statistically higher
Mean Difference Bad Effects Emax, B vs E ([3]; listed as SDX chloride): statistically higher
Mean Difference Feeling Alert/Drowsy Emax, B vs E ([3]; listed as SDX chloride): statistically higher
Mean Difference Feeling High Emax, B vs E ([3]; listed as SDX chloride): statistically higher
Mean Difference Good Effects Emax, B vs E ([3]; listed as SDX chloride): statistically higher
Mean Difference Overall Drug Liking Emax, B vs E ([3]; listed as SDX chloride): not statistically different
Mean Difference Take Drug Again Emax, B vs E ([3]; listed as SDX chloride): not statistically different
Mean Difference Drug Liking Emax, B vs E ([3]; margin 11): 8.3
Mean Difference Drug Liking Emax, B vs E ([3]; margin 11, listed as SDX chloride): not statistically non-inferior
Mean Difference Any Effects Emax, D vs A [3, 9]: statistically lower
Mean Difference Bad Effects Emax, D vs A [3, 9]: statistically lower
Mean Difference Feeling Alert/Drowsy Emax, D vs A [3, 9]: statistically lower
Mean Difference Feeling High Emax, D vs A [3, 9]: statistically lower
Mean Difference Good Effects Emax, D vs A [3, 9]: statistically lower
Mean Difference Overall Drug Liking Emax, D vs A [3, 9]: about 14.9
Mean Difference Take Drug Again Emax, D vs A [3, 9]: statistically lower
Mean Difference Overall Drug Liking Emax, D vs A ([3]; phentermine HCl 60 mg vs SDX Cl 120 mg, listed as SDX chloride): statistically lower
Mean Difference Drug Liking Emax, D vs A ([3]; phentermine HCl 60 mg vs SDX Cl 120 mg, margin 10): at least 15.5
Mean Difference Drug Liking Emax, D vs A ([3]; phentermine HCl 60 mg vs SDX Cl 120 mg, margin 10, listed as SDX chloride): statistically significantly lower
Mean Difference Any Effects Emax, D vs B [3, 10]: statistically lower
Mean Difference Bad Effects Emax, D vs B [3, 10]: statistically similar
Mean Difference Feeling Alert/Drowsy Emax, D vs B [3, 10]: statistically lower
Mean Difference Feeling High Emax, D vs B [3, 10]: statistically lower
Mean Difference Good Effects Emax, D vs B [3, 10]: statistically lower
Mean Difference Overall Drug Liking Emax, D vs B [3, 10]: about 15.3
Mean Difference Take Drug Again Emax, D vs B [3, 10]: 15.4
Mean Difference Overall Drug Liking Emax, D vs B [3, 11]: statistically lower
Mean Difference Take Drug Again Emax, D vs B [3, 11]: statistically lower
Mean Difference Drug Liking Emax, D vs B ([3]; phentermine HCl 60 mg vs SDX Cl 240 mg, margin 10): at least 14.0
Mean Difference Drug Liking Emax, D vs B ([3]; phentermine HCl 60 mg vs SDX Cl 240 mg, margin 10, listed as SDX chloride): not statistically greater than 10 points
